# Laboratory results published in US20070128217A1 (priority 2003, published 2007).
# How the values were obtained:
# [1] = system: antibodies in sera from SARS patients (sera 1a, 1b, 2, 6, 37, 62, London, SARS-yellow, SARS-green); type: binding, human; design: Binding of serum 6 to linear peptides of protein X1 of SARS-CoV Urbani / Binding of serum 37 to linear peptides of protein X1 of SARS-CoV Urbani / Binding of serum 6 to looped/cyclic peptide (PEPSCAN-ELISA) / Binding of serum 37 to looped/cyclic peptide (PEPSCAN-ELISA) / Binding of serum 37 to looped/cyclic peptides of protein X1 of SARS-CoV Urbani / Binding of serum 6 to linear peptides of protein X2 / Binding of serum 37 to linear peptides of protein X2 / Binding of serum 37 to looped/cyclic peptides of protein X2 of SARS-CoV Urbani / Binding of serum 6 to linear peptides of protein M of SARS-CoV Urbani / Binding of serum 37 to linear peptides of protein M of SARS-CoV Urbani / Binding of serum 6 to looped/cyclic peptides of protein M of SARS-CoV Urbani / Binding of serum 37 to looped/cyclic peptides of protein M of SARS-CoV Urbani / Binding of serum 6 to linear peptides of protein X3 of SARS-CoV Urbani / Binding of serum 37 to linear peptides of protein X3 of SARS-CoV Urbani / Binding of serum 37 to looped/cyclic peptides of protein X3 of SARS-CoV Urbani / Binding of serum 6 to linear peptides of protein X4 of SARS-CoV Urbani / Binding of serum 37 to linear peptides of protein X4 of SARS-CoV Urbani / Binding of serum 37 to looped/cyclic peptides of protein X4 of SARS-CoV Urbani / Binding of serum 6 to linear peptides of protein X5 of SARS-CoV Urbani / Binding of serum 37 to linear peptides of protein X5 of SARS-CoV Urbani / Binding of serum 37 to looped/cyclic peptides of protein X5 of SARS-CoV Urbani / Binding of serum 6 to linear peptides of protein N of SARS-CoV Urbani / Binding of serum 37 to linear peptides of protein N of SARS-CoV Urbani / Binding of serum 6 to linear peptide (PEPSCAN-ELISA) / Binding of serum 1a to looped/cyclic peptides of protein N of SARS-CoV Urbani / Binding of serum 1b to looped/cyclic peptides of protein N of SARS-CoV Urbani / Binding of serum 2 to looped/cyclic peptides of protein N of SARS-CoV Urbani / Binding of serum 6 to looped/cyclic peptides of protein N of SARS-CoV Urbani / Binding of serum 37 to looped/cyclic peptides of protein N of SARS-CoV Urbani / Binding of serum 62 to looped/cyclic peptides of protein N of SARS-CoV Urbani / Binding of serum London to looped/cyclic peptides of protein N of SARS-CoV Urbani / Binding of serum SARS-green to looped/cyclic peptides of protein N of SARS-CoV Urbani: unit not given here
# [2] = system: control sera (pooled serum of ten healthy LUMC hospital workers; commercial negative donor pooled serum from the Dutch bloodbank); type: binding, human; design: Binding of Control serum LUMC to linear peptides / Binding of Control serum Blood-bank to linear peptides / Binding of Control serum LUMC to looped peptides / Binding of Control Serum Blood-Bank to Looped peptides / Binding of Control serum LUMC to linear peptides of the protein M of SARS-CoV Urbani / Binding of Control serum Blood-bank to linear peptides of the protein M of SARS-CoV Urbani / Binding of Control serum LUMC to looped peptides of the protein M of SARS-CoV Urbani / Binding of Control Serum Blood-Bank to Looped peptides of the protein M of SARS-CoV Urbani: unit not given here
# [3] = system: rabbit serum obtained by immunizing a rabbit with the SARS-CoV strain Frankfurt 1; type: binding; design: Binding of a rabbit serum to linear peptides / Binding of a rabbit serum to looped peptides / Rabbit serum linear peptides / Rabbit serum looped peptides / Binding of a rabbit serum to linear peptides of protein N of SARS-CoV Urbani (Rabbit serum linear peptides) / Binding of a rabbit serum to looped/cyclic peptides of protein N of SARS-CoV Urbani (Rabbit serum looped peptides): unit not given here
Sequence,Binding of serum 1a to looped/cyclic peptide (PEPSCAN-ELISA) [1],Binding of serum 1b to looped/cyclic peptide (PEPSCAN-ELISA) [1],Binding of serum 2 to looped/cyclic peptide (PEPSCAN-ELISA) [1],Binding of serum 6 to looped/cyclic peptide (PEPSCAN-ELISA) [1],Binding of serum 37 to looped/cyclic peptide (PEPSCAN-ELISA) [1],Binding of serum 62 to looped/cyclic peptide (PEPSCAN-ELISA) [1],Binding of serum London to looped/cyclic peptide (PEPSCAN-ELISA) [1],Binding of serum SARS-green to looped/cyclic peptide (PEPSCAN-ELISA) [1],Binding of serum SARS-yellow to looped/cyclic peptide (PEPSCAN-ELISA) [1],Binding of Control Serum Blood-Bank to Looped peptides [2],Binding of Control serum Blood-bank to linear peptides [2],Binding of Control serum LUMC to linear peptides [2],Binding of Control serum LUMC to looped peptides [2],Binding of a rabbit serum to linear peptides [3],Binding of a rabbit serum to looped peptides [3],also measured
WKCKSKNPLLYDANY,0.6,0.5,0.4,0.3,0.6,0.6,0.2,0.3,0.5,0.6,0.7,0.8,0.5,0.1,0.6,Binding of serum 1a to linear peptides of protein X1 of SARS-CoV Urbani [1]: 0.8; Binding of serum 1b to linear peptides of protein X1 of SARS-CoV Urbani [1]: 0.8; Binding of serum 2 to linear peptides of protein X1 of SARS-CoV Urbani [1]: 0.6; Binding of serum 6 to linear peptides of protein X1 of SARS-CoV Urbani [1]: 0.7; Binding of serum 37 to linear peptides of protein X1 of SARS-CoV Urbani [1]: 0.8; Binding of serum 62 to linear peptides of protein X1 of SARS-CoV Urbani [1]: 0.7; Binding of serum London to linear peptides of protein X1 of SARS-CoV Urbani [1]: 0.3; Binding of serum SARS-green to linear peptides of protein X1 of SARS-CoV Urbani [1]: 0.4; Binding of serum SARS-yellow to linear peptides of protein X1 of SARS-CoV Urbani [1]: 0.5
WLCALGKVLPFHRWH,,,,,,,,,,0.4,0.9,0.6,0.6,,,Binding of serum 1a to linear peptides of protein X5 of SARS-CoV Urbani [1]: 0.7; Binding of serum 1a to looped/cyclic peptides of protein X5 of SARS-CoV Urbani [1]: 0.5; Binding of serum 1b to linear peptides of protein X5 of SARS-CoV Urbani [1]: 0.6; Binding of serum 1b to looped/cyclic peptides of protein X5 of SARS-CoV Urbani [1]: 0.4; Binding of serum 2 to linear peptides of protein X5 of SARS-CoV Urbani [1]: 0.7; Binding of serum 2 to looped/cyclic peptides of protein X5 of SARS-CoV Urbani [1]: 0.6; Binding of serum 6 to linear peptides of protein X5 of SARS-CoV Urbani [1]: 0.8; Binding of serum 6 to looped/cyclic peptides of protein X5 of SARS-CoV Urbani [1]: 0.7; Binding of serum 37 to linear peptides of protein X5 of SARS-CoV Urbani [1]: 0.7; Binding of serum 37 to looped/cyclic peptides of protein X5 of SARS-CoV Urbani [1]: 0.5; Binding of serum 62 to linear peptides of protein X5 of SARS-CoV Urbani [1]: 0.8; Binding of serum 62 to looped/cyclic peptides of protein X5 of SARS-CoV Urbani [1]: 0.7; Binding of serum London to linear peptides of protein X5 of SARS-CoV Urbani [1]: 0.8; Binding of serum London to looped/cyclic peptides of protein X5 of SARS-CoV Urbani [1]: 0.5; Binding of serum SARS-green to linear peptides of protein X5 of SARS-CoV Urbani [1]: 0.6; Binding of serum SARS-green to looped/cyclic peptides of protein X5 of SARS-CoV Urbani [1]: 0.5; Binding of serum SARS-yellow to linear peptides of protein X5 of SARS-CoV Urbani [1]: 0.2; Binding of serum SARS-yellow to looped/cyclic peptides of protein X5 of SARS-CoV Urbani [1]: 0.6; Rabbit serum linear peptides [3]: 0.6; Rabbit serum looped peptides [3]: 0.8
WLCWKCKSKNPLLYD,0.8,0.6,0.6,0.6,0.9,0.7,0.3,0.4,0.6,0.7,0.6,0.7,0.8,0.2,0.6,"Recognition of the peptide by sera of SARS-CoV infected individuals, and form (linear, looped/cyclic) in which it is recognized [1]: recognized in linear form"
